This is an account of results in US4250087A, “Carboxyl terminus analogs of β-endorphin” (Hoffmann-La Roche Inc., priority 1979, dated 1981).

Assay [1] concerns rat brain receptor (opiate). Put plainly: Rat brain binding assay with tritiated βh-EP as primary ligand (Example 4). The note with it: for IC50: 50% inhibiting concentration; for Relative Potency: receptor binding, βh-Endorphin = 100. The method, then:
Opiate activity was measured in the rat brain binding assay in which tritiated βh -EP is used as primary ligand (Ferrara et al., Biochem. Biophys. Res. Comm. 89, 786 [1979]).

Assay [2] is described as follows: Analgesic assay, tail-flick method, intracerebroventricular injection. It is filed as in vivo, male ICR mice. As to conditions: for Relative Potency: analgesic potency, βh-Endorphin = 100 (run in the same group); for AD50: intracerebroventricular injection, mice, tail-flick, 95% confidence limit in parentheses. The protocol:
(§1) Opiate activity was measured from the depression of electrically-stimulatedcontractions of guinea pig ileum preparations, see Kosterlitz et al., J. Pharmacol. 39, 398 (1970) and Doneen et al., Biochem. Biophys. Res. Commun. 74, 656 (1977). For analgesic assay, male ICR mice weighing 25-30 g (Simonsen Laboratories, Gilroy, CA) were used. Analgesic activity was assessed by the tail-flick method of D'Amour and Smith as described by Li et al., Biochem. Biophys. Res. Commun. 85, 795 (1978).
^a AD50 in nmole (95% confidence limit) by
intracerebroventricular injection.
(In hot-plate and tail-flick tests a longer latency is read as antinociception.)

For assay [3], the system named is guinea pig ileum preparations. Nature of the assay: Opiate activity: depression of electrically-stimulated contractions of guinea pig ileum preparations. It is filed as cell-based. The note with it: for IC50: guinea pig ileum assay; for Relative Potency: guinea pig ileum, βh-Endorphin = 100. The protocol: as §1
A further assay addresses opiate receptor. Put plainly: Opiate receptor binding assay, rat brain membrane fraction (Example 2). The note with it: for IC50: 50% inhibiting concentration, [3H-Tyr27]-βh-EP as primary ligand; for Relative Potency: receptor binding, βh-Endorphin = 100. The method, then:
The opiate receptor binding assay was performed by the method of Pasternak et al., Mol. Pharmacol. 11, 340 (1975) with modifications using a membrane fraction from rat brain homogenate. [^3 H-Tyr^27 ]-βh -EP was used as primary ligand and synthetic βh -EP as standard competing ligand.

The conditions of assay [4]: cited from earlier work.
For assay [5] the following is noted: βh-EP = 100; cited from earlier work.
Assay [6] has as its system guinea pig ileum preparations. The note with it: βh-EP = 100; cited from earlier work.
[7] abbreviates: tritiated βh-EP as primary ligand.

For the compound `CSCC[C@H](NC(=O)[C@H](Cc1ccccc1)NC(=O)CNC(=O)CNC(=O)[C@@H](N)Cc1ccc(O)cc1)C(=O)O` [methionine-enkephalin, reference compound], the “activity in rat brain binding assay (in words)” value in assay [1] is on record as “low activity”. Also, the “activity in rat brain binding assay, relative to βh-EP” value in assay [1] (setting [7]) was 5 % of βh -EP.

As to “[CH3 (CH2)4 NH2^31 ]-βh -EP [[CH(CH2)4 NH2^31]-βh -EP]”, the IC50 in assay [1] (setting [7]) came out at 0.33 nM. Also, in assay [1], the “Relative Potency” value is listed as 197.

With “[Gln^8, Gly^31 ]-βh -EP-Gly-Gly-NH2 [[Gln^8,Gly^31]-βh -Gly--Gly--NH2]”, in assay [1], the “potency in the binding assay relative to βh-EP (in words)” value was “nine times that of βh -EP” and the “Relative Potency” value came out at 929. Further, the IC50 in assay [1] (setting [7]) came out at 0.07 nM.

As to [Gly^31 ]-βh -EP, the “Relative Potency” value in assay [2] was determined as 83; in assay [3] it was 168; with opiate receptor, 127. The AD50 in assay [2] was 0.077 (0.038-0.17) nmole. Further, the IC50 worked out at 76 nM in assay [3] and 0.59 nM at opiate receptor.

As for “[Gly^31 ]-βh -EP-Gly-Gly-NH2 [[Gly^31]-βh -EP--Gly--Gly--NH2]”, in assay [1], the “potency in the binding assay relative to βh-EP (in words)” value is “over four times the potency of βh -EP” and the “Relative Potency” value is 433. Moreover, in assay [1] (setting [7]), the IC50 stood at 0.15 nM.

With “[Gly^31 ]-βh -EP-Gly-NH2 [[Gly^31]-βh -EP--Gly--NH2]”, in assay [1], the “activity in rat brain binding assay (in words)” value is reported as “a further increase in activity” and the “Relative Potency” value was 342. Also, the half-maximal inhibitory concentration (IC50) in assay [1] (setting [7]) came out at 0.19 nM.

On to “[Gly^31 ]-βh -endorphinamide [[Gly^31]-βh -EP--NH2]”, for which, in assay [2], the “Relative Potency” value is 225 and the AD50 is listed as 0.016 (0.008-0.032) nmole. In assay [3], this compound gave an IC50 of 64 nM and a Relative Potency of 200. At opiate receptor, this compound yielded a concentration for half-maximal inhibition (IC50) of 0.3 nM and a Relative Potency of 250. For the same compound, the “potency in the receptor assay relative to the parent peptide (in words)” value with opiate receptor (Table 4) was “almost three times more potent”.

As for “[Gly^31 ]-βh -endorphinylglycine [[Gly^31]-βh -EP--Gly--OH]”, in assay [2], the “Relative Potency” value is listed as 217 and the AD50 is listed as 0.043 (0.031-0.057) nmole. In assay [3], this compound registered an IC50 of 97 nM and a Relative Potency of 132. On opiate receptor, the IC50 came out at 0.49 nM and the Relative Potency came out at 153.

For the compound [Phe^27, Gly^31 ]-βh -EP, the “analgesic potency relative to the parent” value in assay [4] (intravenous assay route) is on record as “about 1.48 times that of the parent”. For the same compound, the “relative potency previously obtained, in vivo assay” value in assay [5] was 119. The “relative potency previously obtained, guinea pig ileum assay” value in assay [6] was 128.

Take “β-endorphin: the structure corresponding to positions 61-91 of β-lipotropin, namely β-endorphin (YGGFMTSEKSQTPLVTLFKNAIIKNAYKKGE; Beta-endorphin; UniProt P01189 237-267, looked up)”: the “analgesic activity (in words)” value in assay [4] (intravenous route) is “potent analgesic activity by the intravenous route”.

As to “βh -Endorphin: synthetic βh -EP as standard competing ligand [reference compound]”, the “Relative Potency” value (in assay [2]; in assay [3]; in assay [1]; in the assay on opiate receptor) was 100 each time. The half-maximal inhibitory concentration (IC50) in assay [3] came out at 128 nM; in assay [1] (setting [7]), 0.65 nM; at opiate receptor, 0.75 nM.

By IC50 is commonly meant the concentration that inhibits the measured activity by half. The low end stands for greater potency in that assay, the high end for weaker potency in that assay.
